Assay: xn = mol fraction of the nth substance listed
Details: Liquid, Vibrating tube method

Cc1cccc(C)c1 [1,3-dimethylbenzene] + CCCCCCCCCC
mass density [kg/m3]
Details	x2 = 0	x2 = 0.2005	x2 = 0.3999	x2 = 0.603	x2 = 0.7998
293.15 K, 100 kPa	864.2	825.1	793.6	768.3	748.3
293.15 K, 1000 kPa	864.4	825.4	794.1	768.8	748.9
293.15 K, 3000 kPa	865.8	826.8	795.4	770.2	750.2
293.15 K, 5000 kPa	866.9	828	796.6	771.4	751.5
293.15 K, 10000 kPa	870.5	831.7	800.4	775.2	755.2
293.15 K, 15000 kPa	873.8	835.1	803.7	778.6	758.6
293.15 K, 20000 kPa	877	838.3	807	781.8	761.8
293.15 K, 25000 kPa	880.2	841.5	810.2	785	765.1
293.15 K, 30000 kPa	883.2	844.5	813.3	788.1	768.2
293.15 K, 35000 kPa	886	847.3	816.1	790.9	771
293.15 K, 40000 kPa	888.7	850.1	818.8	793.7	773.8
293.15 K, 50000 kPa	894.4	855.8	824.5	799.4	779.4
293.15 K, 60000 kPa	899.1	860.6	829.2	804	784.1
303.15 K, 100 kPa	855	816	784.6	759.3	739.4
303.15 K, 1000 kPa	855.4	816.7	785.6	760.5	740.8
303.15 K, 3000 kPa	857.5	818.7	787.4	762.3	742.4
303.15 K, 5000 kPa	858.8	820.1	789	763.9	744
303.15 K, 10000 kPa	862.3	823.8	792.5	767.5	747.7
303.15 K, 15000 kPa	865.8	827.3	796.2	771.2	751.4
303.15 K, 20000 kPa	869	830.6	799.5	774.4	754.7
303.15 K, 25000 kPa	872.2	833.8	802.7	777.8	758
303.15 K, 30000 kPa	875.3	837	805.9	780.9	761.2
303.15 K, 35000 kPa	878.2	840.1	809	784.1	764.3
303.15 K, 40000 kPa	881	842.9	811.8	786.9	767.1
303.15 K, 50000 kPa	886.7	848.6	817.5	792.6	772.8
303.15 K, 60000 kPa	892	853.9	822.7	797.8	778
313.15 K, 100 kPa	846.7	808.1	777	752	732.3
313.15 K, 1000 kPa	846.9	808.4	777.4	752.5	732.8
313.15 K, 3000 kPa	848.6	810.1	779.1	754.1	734.4
313.15 K, 5000 kPa	850.1	811.7	780.8	755.8	736.1
313.15 K, 10000 kPa	854	815.7	784.7	759.8	740.2
313.15 K, 15000 kPa	857.6	819.4	788.5	763.6	743.9
313.15 K, 20000 kPa	861.1	822.9	792.1	767.2	747.6
313.15 K, 25000 kPa	864.5	826.4	795.6	770.7	751.1
313.15 K, 30000 kPa	867.7	829.7	798.8	773.9	754.3
313.15 K, 35000 kPa	870.9	833	802.1	777.2	757.6
313.15 K, 40000 kPa	873.8	835.9	805	780.1	760.5
313.15 K, 50000 kPa	879.8	841.9	810.9	786.1	766.4
313.15 K, 60000 kPa	885.1	847.2	816.2	791.3	771.6
323.15 K, 100 kPa	837.7	799.4	768.6	743.9	724.4
323.15 K, 1000 kPa	838.6	800.3	769.5	744.7	725.2
323.15 K, 3000 kPa	840.2	802	771.3	746.5	727
323.15 K, 5000 kPa	841.9	803.8	773.1	748.3	728.8
323.15 K, 10000 kPa	845.9	808	777.3	752.6	733.1
323.15 K, 15000 kPa	849.8	811.9	781.2	756.6	737.1
323.15 K, 20000 kPa	853.6	815.8	785.1	760.4	741
323.15 K, 25000 kPa	857	819.2	788.6	763.8	744.4
323.15 K, 30000 kPa	860.4	822.7	792.1	767.4	747.9
323.15 K, 35000 kPa	863.7	826	795.3	770.6	751.2
323.15 K, 40000 kPa	866.9	829.2	798.6	773.9	754.4
323.15 K, 50000 kPa	873	835.3	804.7	779.9	760.4
323.15 K, 60000 kPa	878.8	841.2	810.5	785.8	766.3

Source: the NIST ThermoML archive (doi:10.1016/j.jct.2019.03.025)
